According to ChEMBL document CHEMBL3739294, “Hydroxylated Daphniphyllum Alkaloids from Daphniphyllum himalense” (J Nat Prod, 2015):

Assays:
[1] = target: T1, Protein deacetylase HDAC6 (Homo sapiens) (UniProt Q9UBN7); assay: Inhibition of full-length recombinant human HDAC6 expressed in insect High5 cells using Boc-Lys(-acetyl)-AMC as substrate incubated for 3 hrs; parameters: concentration or dose not given beside the values; conditions: concentration not given here
T1 sequence (whole entry): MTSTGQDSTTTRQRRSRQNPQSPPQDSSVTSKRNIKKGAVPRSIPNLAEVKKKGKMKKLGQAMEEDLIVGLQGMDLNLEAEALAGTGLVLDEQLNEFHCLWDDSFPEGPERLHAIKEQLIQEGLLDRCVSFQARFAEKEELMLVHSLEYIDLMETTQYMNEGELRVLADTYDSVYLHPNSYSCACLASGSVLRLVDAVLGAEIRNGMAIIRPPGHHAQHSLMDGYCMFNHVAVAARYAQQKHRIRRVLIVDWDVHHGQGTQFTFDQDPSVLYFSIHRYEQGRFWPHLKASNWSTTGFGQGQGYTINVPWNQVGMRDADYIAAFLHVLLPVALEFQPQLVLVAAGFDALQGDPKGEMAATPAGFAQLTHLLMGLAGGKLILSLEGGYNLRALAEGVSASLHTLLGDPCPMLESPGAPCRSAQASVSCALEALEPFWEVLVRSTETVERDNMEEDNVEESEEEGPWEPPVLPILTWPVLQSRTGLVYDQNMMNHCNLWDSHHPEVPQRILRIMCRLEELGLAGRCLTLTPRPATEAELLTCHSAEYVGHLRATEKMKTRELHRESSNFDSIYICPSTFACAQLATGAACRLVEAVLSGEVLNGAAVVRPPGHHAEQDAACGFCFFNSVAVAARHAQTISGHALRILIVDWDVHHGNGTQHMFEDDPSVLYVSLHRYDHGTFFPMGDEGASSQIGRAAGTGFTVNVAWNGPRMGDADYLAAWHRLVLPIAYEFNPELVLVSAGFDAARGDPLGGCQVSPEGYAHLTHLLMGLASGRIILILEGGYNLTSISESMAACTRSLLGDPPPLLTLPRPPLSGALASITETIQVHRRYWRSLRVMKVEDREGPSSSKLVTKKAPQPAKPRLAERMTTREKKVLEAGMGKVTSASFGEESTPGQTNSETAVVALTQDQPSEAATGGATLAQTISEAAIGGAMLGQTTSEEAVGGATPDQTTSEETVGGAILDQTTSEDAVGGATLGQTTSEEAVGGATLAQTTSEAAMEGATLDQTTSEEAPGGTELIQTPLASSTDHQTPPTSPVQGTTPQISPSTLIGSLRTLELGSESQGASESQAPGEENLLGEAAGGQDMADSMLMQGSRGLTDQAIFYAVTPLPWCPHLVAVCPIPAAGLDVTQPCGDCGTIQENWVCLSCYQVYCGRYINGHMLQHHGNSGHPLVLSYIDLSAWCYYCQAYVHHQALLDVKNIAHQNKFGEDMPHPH

[2] = target: T2, Tyrosine-protein phosphatase non-receptor type 1 (Homo sapiens) (UniProt P18031); assay: Inhibition of PTP1B (unknown origin) using pNPP as substrate at 20 ug/ml measured for 3 mins by colorimetric assay
T2 sequence (whole entry): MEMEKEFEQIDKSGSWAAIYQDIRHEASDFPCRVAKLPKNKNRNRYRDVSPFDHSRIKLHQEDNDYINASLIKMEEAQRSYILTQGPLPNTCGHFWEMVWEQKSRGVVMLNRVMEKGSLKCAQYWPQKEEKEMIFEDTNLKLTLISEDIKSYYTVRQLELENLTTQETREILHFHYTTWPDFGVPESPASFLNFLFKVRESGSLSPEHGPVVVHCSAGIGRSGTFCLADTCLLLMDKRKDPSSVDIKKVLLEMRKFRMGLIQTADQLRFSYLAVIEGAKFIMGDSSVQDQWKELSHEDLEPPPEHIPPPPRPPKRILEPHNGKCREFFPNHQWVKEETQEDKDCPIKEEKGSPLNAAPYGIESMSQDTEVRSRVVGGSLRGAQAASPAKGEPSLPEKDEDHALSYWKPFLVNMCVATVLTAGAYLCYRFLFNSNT

[3] = target: Tyrosine-protein phosphatase non-receptor type 1, PTP1B (Homo sapiens) (UniProt P18031); assay: Inhibition of human PTP1B protein expressed in insect High5 cells by Z-LYTE kinase assay; conditions: concentration not given here
[4] = target: T3, Aurora kinase A (Homo sapiens) (UniProt O14965); assay: Inhibition of aurora kinase A (unknown origin) incubated for 60 mins by fluorescence analysis
T3 sequence (whole entry): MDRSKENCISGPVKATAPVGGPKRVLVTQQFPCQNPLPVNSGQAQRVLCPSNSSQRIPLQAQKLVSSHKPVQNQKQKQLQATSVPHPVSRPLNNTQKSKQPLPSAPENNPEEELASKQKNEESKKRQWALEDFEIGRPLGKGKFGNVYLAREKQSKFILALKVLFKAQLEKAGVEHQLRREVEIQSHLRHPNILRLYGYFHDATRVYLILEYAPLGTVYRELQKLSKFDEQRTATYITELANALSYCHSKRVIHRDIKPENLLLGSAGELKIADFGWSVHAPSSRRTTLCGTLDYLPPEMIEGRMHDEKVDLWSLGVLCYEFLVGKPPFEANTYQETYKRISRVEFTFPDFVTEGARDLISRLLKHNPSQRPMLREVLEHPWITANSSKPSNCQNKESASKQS

COC(=O)[C@@H]1C[C@@]23C(=O)[C@H]4C[C@H]5N(C[C@H]4C)C[C@@H]([C@@H](O)CC4=C2[C@@H]1CC4)[C@]53C
inhibition [1]: < 10%

C[C@@H]1CN2C[C@H]3CCC4=C5C(=CC[C@@]56C(=O)[C@H]1C[C@@H]2[C@@]36C)[C@@H](O)C4
inhibition [1]: < 10%

C[C@@H]1CN2C[C@H]3CC[C@@H]4C(=O)C=C5CC[C@@]6(C(=O)[C@H]1C[C@@H]2[C@@]36C)[C@@]54O
inhibition [1]: < 10% | inhibition [2]: 40% | inhibition [3]: 44%

COC(=O)C1=C2CCC3=C2[C@@]2(C1)C(=O)[C@H]1C[C@@]4(O)N(C[C@@H](CC3)[C@@]24C)C[C@H]1C
inhibition [1]: < 10% | inhibition [4]: > 30%

COC(=O)[C@@H]1C[C@@]23C(=O)[C@H]4[C@H](O)[C@H]5N(C[C@@H](CCC6=C2[C@@H]1CC6)[C@]53C)C[C@H]4C
inhibition [1]: < 10%

C[C@@H]1CN2C[C@H]3CC[C@H](O)[C@@H]4C5=C(C[C@@]46C(=O)[C@H]1C[C@@H]2[C@@]36C)C(=O)OCC5
inhibition [1]: < 10%

COC(=O)[C@@H]1C[C@@]23C(=O)[C@H]4C[C@H]5N(C[C@@H](C[C@@H](O)C6=C2[C@@H]1CC6)[C@]53C)C[C@H]4C
inhibition [1]: < 10%

COC(=O)C1=C2C[C@H](O)C3=C2[C@@]2(C1)C(=O)[C@H]1C[C@H]4N(C[C@@H](CC3)[C@]42C)C[C@H]1C
inhibition [1]: < 10% | inhibition [2]: 40%

C[C@@H]1CN2C[C@H]3CC[C@]4(O)C[C@H](O)C5=C4[C@@]4(CC5)C(=O)[C@H]1C[C@@H]2[C@@]34C
inhibition [1]: < 10%

C[C@@H]1CN2C[C@H]3CC[C@H](O)[C@@H]4C(CCO)=C(C(=O)O)C[C@@]45C(=O)[C@H]1C[C@@H]2[C@@]35C
inhibition [1]: < 10%

COC(=O)[C@@H]1C[C@@]23C(=O)[C@H]4C[C@H]5N(C[C@@H](CCC6=C2[C@@H]1C[C@H]6O)[C@]53C)C[C@H]4C
inhibition [1]: < 10%

COC(=O)[C@@H]1C[C@@]23C(=O)[C@H]4C[C@H]5N(C[C@H]4C)C[C@@H]([C@H](O)CC4=C2[C@@H]1CC4)[C@]53C
inhibition [1]: < 10%

COC(=O)[C@@H]1C[C@@]23C(=O)[C@H]4C[C@H]5N(C[C@@H](C[C@H](O)C6=C2[C@@H]1CC6)[C@]53C)C[C@H]4C
inhibition [1]: < 10%
